These results are taken from ChEMBL document CHEMBL4325924, “Discovery of Orally Bioavailable and Liver-Targeted Hypoxia-Inducible Factor Prolyl Hydroxylase (HIF-PHD) Inhibitors for the Treatment of Anemia” (ACS Med Chem Lett, 2018).

Molecules are shown by their SMILES.

A short description of data set [1]: Oral bioavailability in Wistar Han rat at 2 mg/kg administered via gavage by LC-MS/MS analysis. Format: ADME, organism-based. The settings on record: in vivo.
Data set [2] in a line: Plasma clearance in Wistar Han rat at 1 mg/kg, iv or 2 mg/kg, po administered via gavage by LC-MS/MS analysis. Format: ADME, organism-based.
The nature of data set [3]: Plasma clearance in Beagle dog at 0.175 mg/kg, iv or 1 mg/kg, po administered via gavage by LC-MS/MS analysis. Format: ADME, organism-based, Canis lupus familiaris.
Data set [4] is described as follows: Half life in Wistar Han rat at 1 mg/kg, iv or 2 mg/kg, po administered via gavage by LC-MS/MS analysis. Format: ADME, organism-based. The settings on record: in vivo.
The nature of data set [5]: Half life in Beagle dog at 0.175 mg/kg, iv or 1 mg/kg, po administered via gavage by LC-MS/MS analysis. The settings on record: in vivo. Format: ADME, organism-based, Canis lupus familiaris.
A short description of data set [6]: Volume of distribution in Wistar Han rat at 1 mg/kg, iv or 2 mg/kg, po administered via gavage by LC-MS/MS analysis. Format: ADME, organism-based. To be noted: in vivo.
Data set [7] is described as follows: Oral bioavailability in Beagle dog at 1 mg/kg administered via gavage by LC-MS/MS analysis. In kind it is ADME, organism-based, Canis lupus familiaris. To be noted: in vivo.
Data set [8] can be described thus: Volume of distribution in Beagle dog at 0.175 mg/kg, iv or 1 mg/kg, po administered via gavage by LC-MS/MS analysis. In kind it is ADME, organism-based, Canis lupus familiaris. The settings on record: in vivo.

Usually bioavailability stands for dose-corrected exposure relative to a reference, in per cent. A low value points to little systemic uptake. As usually defined, the half-life is the time in which the quantity being followed falls by half. Read a high half-life as slow decline. For `O=C(O)CNC(=O)c1c(O)c2c(n(Cc3ccc(C(F)(F)F)cc3)c1=O)COC2`, the bioavailability in data set [1] is 39%; in data set [7], 25%. For the same compound, the clearance was determined as 11 mL/min/kg in data set [2] and 17 mL/min/kg in data set [3]. In addition, the half-life is 7.3 h in data set [4] and 6.2 h in data set [5]. The values for the Vd in data set [6] and in data set [8] were 3.1 L/kg and 5.6 L/kg, respectively.
